Our source for the TGI values is PubChem BioAssay (NCI).

Some test systems named below: MDA-MB-231 breast; SK-MEL-5 melanoma; TK-10 renal; HL-60(TB) leukemia; HOP-92 NSCLC; BT-549 breast; SN12C renal; A549 NSCLC; ACHN renal; OVCAR-8 ovarian; UO-31 renal; SR leukemia; SK-MEL-28 melanoma; OVCAR-4 ovarian; T-47D breast; MDA-MB-435; NCI-H522 lung; RPMI-8226 leukemia.
Common to all, as to test: DTP human tumour cell line panel, 48 h

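Assay format: 96-well plates, 48-hour exposure. The concentration for full growth arrest is given as TGI.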

As a reminder, the TGI is the concentration at which net growth stops. Regarding `COC(=O)c1c(OC(C)=O)ccc2c1c1cc3ccccc3c(OC(C)=O)c1n2C`, the TGI was greater than 100 µM in the experiment with MDA-MB-231 breast; 31.2 µM with SK-MEL-5 melanoma; 92.5 µM with TK-10 renal; greater than 100 µM in the experiment on HL-60(TB) leukemia; 37 µM in the experiment on HOP-92 NSCLC; 81.1 µM in the experiment on BT-549 breast. Besides, the total growth inhibition concentration (TGI) in the experiment with SN12C renal is greater than 100 µM; in the experiment on A549 NSCLC, greater than 100 µM; with ACHN renal, 89.4 µM; in the experiment on OVCAR-8 ovarian it was greater than 100 µM; in the experiment with UO-31 renal it was greater than 100 µM; with SR leukemia, greater than 100 µM. The TGI in the experiment on SK-MEL-28 melanoma was greater than 100 µM; in the experiment on OVCAR-4 ovarian it was greater than 100 µM; with T-47D breast, 39.8 µM; in the experiment on MDA-MB-435, greater than 100 µM; in the experiment on NCI-H522 lung it was 42.9 µM; with RPMI-8226 leukemia it was greater than 100 µM.
Take `O=c1c2cc([N+](=O)[O-])cnc2sn1-c1ccc(Br)cc1`: the TGI with MDA-MB-231 breast is 73.4 µM; with SK-MEL-5 melanoma, greater than 100 µM; in the experiment on TK-10 renal it was greater than 100 µM; in the experiment on HL-60(TB) leukemia, 80.7 µM; with HOP-92 NSCLC, 54.7 µM; with BT-549 breast, greater than 100 µM. Also, the TGI with SN12C renal was greater than 100 µM; in the experiment on A549 NSCLC, greater than 100 µM; in the experiment on ACHN renal it was greater than 100 µM; with OVCAR-8 ovarian, greater than 100 µM; in the experiment with UO-31 renal, greater than 100 µM; with SR leukemia, 60.7 µM. In addition, the TGI was greater than 100 µM with SK-MEL-28 melanoma; 82 µM in the experiment with OVCAR-4 ovarian; 48.1 µM in the experiment on T-47D breast; greater than 100 µM with MDA-MB-435; 22.6 µM with NCI-H522 lung; greater than 100 µM with RPMI-8226 leukemia.
Regarding `CCOC(=O)/C=C1\C[C@H](NC(=O)OCc2ccccc2)C(=O)N1CC(=O)OCC`, the TGI in the experiment with MDA-MB-231 breast, in the experiment on SK-MEL-5 melanoma, with TK-10 renal, with HL-60(TB) leukemia, in the experiment with HOP-92 NSCLC and in the experiment with BT-549 breast was greater than 100 µM throughout. Further, the TGI with SN12C renal, in the experiment on A549 NSCLC, with ACHN renal, with OVCAR-8 ovarian, in the experiment with UO-31 renal and in the experiment with SR leukemia was greater than 100 µM in each case. Further, the TGI with SK-MEL-28 melanoma, with OVCAR-4 ovarian, with T-47D breast, in the experiment on MDA-MB-435, with NCI-H522 lung and in the experiment on RPMI-8226 leukemia was greater than 100 µM throughout.
Regarding `COc1ccc(NC(C)=O)cc1N1C(=O)/C(=C\c2cccc(Oc3ccccc3)c2)SC1c1ccccc1` (centres undefined), the TGI is greater than 100 µM in the experiment with MDA-MB-231 breast; greater than 100 µM in the experiment with SK-MEL-5 melanoma; greater than 100 µM with TK-10 renal; 37.9 µM in the experiment with HL-60(TB) leukemia; 79.6 µM with HOP-92 NSCLC; greater than 100 µM with BT-549 breast. The TGI in the experiment on SN12C renal was 64.6 µM; in the experiment with A549 NSCLC it was greater than 100 µM; in the experiment with ACHN renal, greater than 100 µM; in the experiment on OVCAR-8 ovarian it was 64.8 µM; in the experiment with UO-31 renal it was greater than 100 µM; with SR leukemia, 29.4 µM. Also, the TGI with SK-MEL-28 melanoma was greater than 100 µM; in the experiment with OVCAR-4 ovarian, greater than 100 µM; with T-47D breast, greater than 100 µM; with MDA-MB-435, greater than 100 µM; in the experiment with NCI-H522 lung, greater than 100 µM; with RPMI-8226 leukemia it was 61.9 µM.
Consider `Cc1ccc2nnc(NS(=O)(=O)c3cc(C)c(Cl)cc3S)n2n1`, for which the TGI with MDA-MB-231 breast, with SK-MEL-5 melanoma, in the experiment on TK-10 renal, in the experiment on HL-60(TB) leukemia, with HOP-92 NSCLC and in the experiment with BT-549 breast was greater than 100 µM throughout. Moreover, the total growth inhibition concentration (TGI) in the experiment with SN12C renal, in the experiment on A549 NSCLC, with ACHN renal, in the experiment with OVCAR-8 ovarian, in the experiment with UO-31 renal and with SR leukemia was greater than 100 µM throughout. For the same compound, the TGI in the experiment with SK-MEL-28 melanoma, in the experiment with OVCAR-4 ovarian, with T-47D breast, with MDA-MB-435, in the experiment on NCI-H522 lung and in the experiment with RPMI-8226 leukemia was greater than 100 µM each time.
Consider `Cc1ccc(C)c(C(=N)c2ccccc2Cc2ccccc2)c1`, for which the TGI was 64.2 µM in the experiment with MDA-MB-231 breast; 30.5 µM in the experiment on SK-MEL-5 melanoma; greater than 100 µM with TK-10 renal; 43.6 µM with HL-60(TB) leukemia; 46.4 µM in the experiment on HOP-92 NSCLC; 83.7 µM in the experiment with BT-549 breast. For the same compound, the TGI is 32.2 µM with SN12C renal; greater than 100 µM in the experiment on A549 NSCLC; 35.7 µM in the experiment on ACHN renal; greater than 100 µM with OVCAR-8 ovarian; greater than 100 µM in the experiment with UO-31 renal; 41.7 µM in the experiment with SR leukemia. For the same compound, the TGI in the experiment with SK-MEL-28 melanoma is 80.1 µM; in the experiment with OVCAR-4 ovarian, 85.8 µM; in the experiment with T-47D breast, 80.6 µM; in the experiment with MDA-MB-435, 47.2 µM; in the experiment on NCI-H522 lung, 30 µM; in the experiment on RPMI-8226 leukemia, 35.4 µM.
For `CC1(C)N=C(N)N=C(N)N1CCCCc1ccccc1`, the TGI with MDA-MB-231 breast is greater than 100 µM; in the experiment with SK-MEL-5 melanoma it was 12.5 µM; in the experiment with TK-10 renal it was greater than 100 µM; with HL-60(TB) leukemia, greater than 31.1 µM; with HOP-92 NSCLC, greater than 100 µM; in the experiment with BT-549 breast, greater than 100 µM. Besides, the total growth inhibition concentration (TGI) with SN12C renal is greater than 54.4 µM; with A549 NSCLC it was greater than 100 µM; with ACHN renal, greater than 100 µM; in the experiment on OVCAR-8 ovarian, greater than 100 µM; in the experiment with UO-31 renal, greater than 100 µM; in the experiment with SR leukemia, greater than 100 µM. The concentration for total growth inhibition (TGI) with SK-MEL-28 melanoma was greater than 100 µM; in the experiment on OVCAR-4 ovarian, greater than 100 µM; in the experiment on T-47D breast, greater than 78.1 µM; in the experiment on MDA-MB-435, greater than 100 µM; in the experiment with NCI-H522 lung it was 37.4 µM; in the experiment with RPMI-8226 leukemia, greater than 93.9 µM.
With `O=C(N1CCN(c2ccccc2)CC1)N(C(=O)C1(c2ccc(Cl)cc2)CCCC1)S(=O)(=O)c1ccccc1`, the TGI in the experiment with MDA-MB-231 breast is 74.5 µM; with SK-MEL-5 melanoma, 40.7 µM; in the experiment with TK-10 renal it was greater than 100 µM; in the experiment with HL-60(TB) leukemia, 68.1 µM; with HOP-92 NSCLC it was 74.4 µM; in the experiment with BT-549 breast it was 80.2 µM. The TGI was 94.6 µM with SN12C renal; greater than 100 µM in the experiment on A549 NSCLC; 45.6 µM in the experiment with ACHN renal; 89.4 µM with OVCAR-8 ovarian; 92.9 µM with UO-31 renal; greater than 100 µM in the experiment with SR leukemia. In addition, the TGI is greater than 100 µM in the experiment with SK-MEL-28 melanoma; 64.2 µM in the experiment on OVCAR-4 ovarian; greater than 100 µM with T-47D breast; greater than 100 µM with MDA-MB-435; 36.6 µM in the experiment on NCI-H522 lung; greater than 100 µM with RPMI-8226 leukemia.
In the case of `COc1cc(C2S/C(=C/c3ccccc3)C(=O)N2c2ccccn2)cc(OC)c1OC` (centres undefined), the TGI in the experiment with MDA-MB-231 breast is greater than 84.8 µM; in the experiment on SK-MEL-5 melanoma, 56.6 µM; with TK-10 renal, greater than 100 µM; in the experiment on HL-60(TB) leukemia it was greater than 100 µM; with HOP-92 NSCLC, 33.6 µM; with BT-549 breast it was 39 µM. The TGI in the experiment with SN12C renal was 33.6 µM; in the experiment with A549 NSCLC, greater than 64 µM; in the experiment on ACHN renal it was 29.8 µM; in the experiment on OVCAR-8 ovarian, 31.2 µM; in the experiment with UO-31 renal, 28.8 µM; in the experiment with SR leukemia it was greater than 100 µM. Moreover, the TGI with SK-MEL-28 melanoma is greater than 74 µM; with OVCAR-4 ovarian, 63.2 µM; in the experiment with T-47D breast, 36.3 µM; in the experiment on MDA-MB-435, 29.3 µM; in the experiment with NCI-H522 lung it was 24.6 µM; in the experiment on RPMI-8226 leukemia, 73.3 µM.
With `NNC(=O)CSc1nnc(CCCCCCCCc2nnc(SCC(=O)NN)o2)o1`, the TGI in the experiment with MDA-MB-231 breast, with SK-MEL-5 melanoma, in the experiment on TK-10 renal, with HL-60(TB) leukemia, in the experiment with HOP-92 NSCLC and in the experiment with BT-549 breast was greater than 100 µM in each case. Also, the TGI in the experiment with SN12C renal, with A549 NSCLC, in the experiment with ACHN renal, with OVCAR-8 ovarian, with UO-31 renal and with SR leukemia was greater than 100 µM in each case. Also, the TGI in the experiment on SK-MEL-28 melanoma, with OVCAR-4 ovarian, in the experiment with T-47D breast, in the experiment on MDA-MB-435, with NCI-H522 lung and with RPMI-8226 leukemia was greater than 100 µM each time.
Regarding `Cc1cn(C2CC(O)C(Cn3nncc3Cn3ccc(=O)[nH]c3=O)O2)c(=O)[nH]c1=O` (centres undefined), the TGI in the experiment on MDA-MB-231 breast, with SK-MEL-5 melanoma, with TK-10 renal, in the experiment on HL-60(TB) leukemia, in the experiment on HOP-92 NSCLC and in the experiment with BT-549 breast was greater than 100 µM in each case. The TGI in the experiment with SN12C renal, in the experiment on A549 NSCLC, in the experiment on ACHN renal, in the experiment with OVCAR-8 ovarian, with UO-31 renal and with SR leukemia was greater than 100 µM each time. The concentration for total growth inhibition (TGI) with SK-MEL-28 melanoma, in the experiment on OVCAR-4 ovarian, with T-47D breast, with MDA-MB-435, in the experiment with NCI-H522 lung and with RPMI-8226 leukemia was greater than 100 µM in each case.
As to `CC(=O)NC1=CC(=O)C=C(Cl)C1=O`, the TGI is greater than 100 µM in the experiment on MDA-MB-231 breast; greater than 100 µM in the experiment on SK-MEL-5 melanoma; greater than 100 µM in the experiment with TK-10 renal; 45.7 µM in the experiment on HL-60(TB) leukemia; greater than 100 µM in the experiment on HOP-92 NSCLC; greater than 100 µM in the experiment on BT-549 breast. The TGI is greater than 100 µM in the experiment with SN12C renal; greater than 100 µM with A549 NSCLC; greater than 100 µM in the experiment with ACHN renal; greater than 100 µM in the experiment with OVCAR-8 ovarian; greater than 100 µM in the experiment on UO-31 renal; 48.3 µM in the experiment on SR leukemia. The TGI in the experiment with SK-MEL-28 melanoma is greater than 100 µM; in the experiment with OVCAR-4 ovarian, 37.7 µM; in the experiment with T-47D breast, greater than 100 µM; in the experiment with MDA-MB-435, 32.2 µM; with NCI-H522 lung, 84 µM; in the experiment with RPMI-8226 leukemia, 52.1 µM.
As to `CCN(CC)c1ccc2cc(-c3csc(-c4ccc(N(C)C)cc4)n3)c(=O)oc2c1`, the TGI in the experiment with MDA-MB-231 breast, with SK-MEL-5 melanoma, with TK-10 renal, in the experiment with HL-60(TB) leukemia, with HOP-92 NSCLC and in the experiment with BT-549 breast was greater than 100 µM in each case. The TGI in the experiment with SN12C renal, with A549 NSCLC, in the experiment on ACHN renal, in the experiment with OVCAR-8 ovarian, in the experiment on UO-31 renal and in the experiment with SR leukemia was greater than 100 µM each time. Moreover, the TGI with SK-MEL-28 melanoma, with OVCAR-4 ovarian, in the experiment on T-47D breast, with MDA-MB-435, in the experiment with NCI-H522 lung and in the experiment on RPMI-8226 leukemia was greater than 100 µM each time.
